Measurements from US6355799B1, “Substituted benzene compounds, process for their preparation, and herbicidal and defoliant compositions containing them” (ISK Americas Incorporated, priority 1997, dated 2002).

How the values were obtained:
Format in all cases: in vivo
[1] = tested on: redroot pigweed (Amaranthus retroflexus, AMARE); experiment: Pre-emerge test, greenhouse herbicide activity screening; conditions: rated 14 days after application, 0 = no damage, 100 = complete death
Method in brief: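 Rating: 0–100 visual injury, 14 DAA. Application: acetone, 187 l/ha, 15–1000 g ai/ha, flat-fan track sprayer with nozzle 40–45 cm above soil or canopy. Post-emerge runs used 0.25% v/v surfactant on 2–3 leaf plants.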

[2] = tested on: barnyardgrass (Echinochloa crus-galli, ECHCG); experiment: as above; conditions: rated 14 days after application, 0 = no damage, 100 = complete death
Method in brief: (§1)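 Fourteen days after spraying, crop and weed injury was graded visually from 0, no effect, to 100, every plant dead. Test substances were dissolved in acetone and applied at 15–1000 g ai/ha with a flat-fan nozzle. Application was either pre-emergence, one day after sowing, or post-emergence at the 2–3 leaf stage.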

[3] = tested on: common ragweed (Ambrosia artemisizfolia L., AMBEL); experiment: as above; conditions: rated 14 days after application, 0 = no damage, 100 = complete death
Method in brief: as §1

[4] = tested on: green foxtail (Setaria viridis, SETVI); experiment: as above; conditions: rated 14 days after application, 0 = no damage, 100 = complete death
Method in brief: as §1

[5] = tested on: ivyleaf morningglory (Ipomoea hederacea, IPOHE); experiment: as above; conditions: rated 14 days after application, 0 = no damage, 100 = complete death
Method in brief: as §1

[6] = tested on: johnsongrass (Sorghum halepense, SORHA); experiment: as above; conditions: rated 14 days after application, 0 = no damage, 100 = complete death
Method in brief: as §1

[7] = tested on: lambsquarters (Chenopodium album, CHEAL); experiment: as above; conditions: rated 14 days after application, 0 = no damage, 100 = complete death
Method in brief: as §1

[8] = tested on: large crabgrass (Digitaria sanguinalis, DIGSA); experiment: as above; conditions: rated 14 days after application, 0 = no damage, 100 = complete death
Method in brief: as §1

[9] = tested on: sicklepod (Cassia obtusifolia, CASOB); experiment: as above; conditions: rated 14 days after application, 0 = no damage, 100 = complete death
Method in brief: as §1

[10] = tested on: velvetleaf (Abutilon theophrasti, ABUTH); experiment: as above; conditions: rated 14 days after application, 0 = no damage, 100 = complete death
Method in brief: as §1

[11] = tested on: field corn (Zea mays L., var. Dekalb 535, CORN); experiment: Pre-emerge test, crop safety; conditions: rated 14 days after application, 0 = no damage, 100 = complete death
Method in brief: (§2)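 Compounds in acetone were track-sprayed at 187 l/ha, 15–1000 g ai/ha, onto sandy loam pots. Pre-emerge seeds were sown one day before spraying, with surface watering afterwards. Post-emerge plants were at the 2–3 leaf stage and sprayed with 0.25% v/v non-ionic surfactant. Injury was rated 0–100 at 14 days.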

[12] = tested on: upland rice (Oryza sp., var. Tebonnet, RICE); experiment: Pre-emerge test, crop safety; conditions: rated 14 days after application, 0 = no damage, 100 = complete death
Method in brief: as §2

[13] = tested on: barnyardgrass (Echinochloa crus-galli, ECHCG); experiment: Post-emerge test, greenhouse herbicide activity screening; conditions: post-emerge, 14 days after application, rating scale 0-100
Method in brief: (§3)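 Sandy loam pots; pre-emerge: sown 1 d pre-spray, surface-watered after, then bottom-watered. Post-emerge: sown 8–21 d before, 2–3 leaf stage, + 0.25% v/v NIS, bottom-watered. Acetone, 187 l/ha track spray, 15–1000 g ai/ha. 0–100 injury score, day 14.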

[14] = tested on: common ragweed (Ambrosia artemisizfolia L., AMBEL); experiment: as above; conditions: post-emerge, 14 days after application, rating scale 0-100
Method in brief: as §3

[15] = tested on: green foxtail (Setaria viridis, SETVI); experiment: as above; conditions: post-emerge, 14 days after application, rating scale 0-100
Method in brief: as §3

[16] = tested on: ivyleaf morningglory (Ipomoea hederacea, IPOHE); experiment: as above; conditions: post-emerge, 14 days after application, rating scale 0-100
Method in brief: as §3

[17] = tested on: johnsongrass (Sorghum halepense, SORHA); experiment: as above; conditions: post-emerge, 14 days after application, rating scale 0-100
Method in brief: as §3

[18] = tested on: lambsquarters (Chenopodium album, CHEAL); experiment: as above; conditions: post-emerge, 14 days after application, rating scale 0-100
Method in brief: as §3

[19] = tested on: large crabgrass (Digitaria sanguinalis, DIGSA); experiment: as above; conditions: post-emerge, 14 days after application, rating scale 0-100
Method in brief: as §3

[20] = tested on: redroot pigweed (Amaranthus retroflexus, AMARE); experiment: as above; conditions: post-emerge, 14 days after application, rating scale 0-100
Method in brief: as §3

[21] = tested on: sicklepod (Cassia obtusifolia, CASOB); experiment: as above; conditions: post-emerge, 14 days after application, rating scale 0-100
Method in brief: as §3

[22] = tested on: velvetleaf (Abutilon theophrasti, ABUTH); experiment: as above; conditions: post-emerge, 14 days after application, rating scale 0-100
Method in brief: as §3

[23] = tested on: field corn (Zea mays L., var. Dekalb 535, CORN); experiment: Post-emerge test, crop safety; conditions: post-emerge, 14 days after application, rating scale 0-100
Method in brief: as §1

[24] = tested on: upland rice (Oryza sp., var. Tebonnet, RICE); experiment: Post-emerge test, crop safety; conditions: post-emerge, 14 days after application, rating scale 0-100
Method in brief: as §1

`COc1c(Cl)cc(F)c(-n2c(=O)cc(C(F)(F)F)n(C)c2=O)c1NC(=O)c1ccc(Cl)cc1` [2-56] was tested, and the “Pre-emerge Herbicidal Activity, phytotoxicity rating (0-100), AMARE” value ([1]; 63 g ai/ha) was 100, the “Pre-emerge Herbicidal Activity, phytotoxicity rating (0-100), AMARE” value ([1]; 250 g ai/ha) was 100 and the “Pre-emerge Herbicidal Activity, phytotoxicity rating (0-100), ECHCG” value ([2]; 63 g ai/ha) was 90. The “Pre-emerge Herbicidal Activity, phytotoxicity rating (0-100), ECHCG” value ([2]; 250 g ai/ha) was 100, the “Pre-emerge Herbicidal Activity, phytotoxicity rating (0-100), AMBEL” value ([3]; 63 g ai/ha) was 100 and the “Pre-emerge Herbicidal Activity, phytotoxicity rating (0-100), AMBEL” value ([3]; 250 g ai/ha) was 100. For the same compound, the “Pre-emerge Herbicidal Activity, phytotoxicity rating (0-100), SETVI” value ([4]; 63 g ai/ha) was 100, the “Pre-emerge Herbicidal Activity, phytotoxicity rating (0-100), SETVI” value ([4]; 250 g ai/ha) was 100 and the “Pre-emerge Herbicidal Activity, phytotoxicity rating (0-100), IPOHE” value ([5]; 63 g ai/ha) was 100. The “Pre-emerge Herbicidal Activity, phytotoxicity rating (0-100), IPOHE” value ([5]; 250 g ai/ha) was 100, the “Pre-emerge Herbicidal Activity, phytotoxicity rating (0-100), SORHA” value ([6]; 63 g ai/ha) was 99 and the “Pre-emerge Herbicidal Activity, phytotoxicity rating (0-100), SORHA” value ([6]; 250 g ai/ha) was 100. The “Pre-emerge Herbicidal Activity, phytotoxicity rating (0-100), CHEAL” value ([7]; 63 g ai/ha) was 100, the “Pre-emerge Herbicidal Activity, phytotoxicity rating (0-100), CHEAL” value ([7]; 250 g ai/ha) was 100 and the “Pre-emerge Herbicidal Activity, phytotoxicity rating (0-100), DIGSA” value ([8]; 63 g ai/ha) was 100. The “Pre-emerge Herbicidal Activity, phytotoxicity rating (0-100), DIGSA” value ([8]; 250 g ai/ha) was 100, the “Pre-emerge Herbicidal Activity, phytotoxicity rating (0-100), CASOB” value ([9]; 63 g ai/ha) was 100 and the “Pre-emerge Herbicidal Activity, phytotoxicity rating (0-100), CASOB” value ([9]; 250 g ai/ha) was 100. The “Pre-emerge Herbicidal Activity, phytotoxicity rating (0-100), ABUTH” value ([10]; 63 g ai/ha) was 100, the “Pre-emerge Herbicidal Activity, phytotoxicity rating (0-100), ABUTH” value ([10]; 250 g ai/ha) was 100 and the “Pre-emerge phytotoxicity rating (0-100), crop damage, CORN” value ([11]; 63 g ai/ha) was 80. For the same compound, the “Pre-emerge phytotoxicity rating (0-100), crop damage, CORN” value ([11]; 250 g ai/ha) was 95, the “Pre-emerge phytotoxicity rating (0-100), crop damage, RICE” value ([12]; 63 g ai/ha) was 30 and the “Pre-emerge phytotoxicity rating (0-100), crop damage, RICE” value ([12]; 250 g ai/ha) was 95. For the same compound, the “phytotoxicity rating ECHCG” value ([13]; 63 g ai/ha) was 0, the “phytotoxicity rating ECHCG” value ([13]; 250 g ai/ha) was 50 and the “phytotoxicity rating AMBEL” value ([14]; 63 g ai/ha) was 70. For the same compound, the “phytotoxicity rating AMBEL” value ([14]; 250 g ai/ha) was 100, the “phytotoxicity rating SETVI” value ([15]; 63 g ai/ha) was 80 and the “phytotoxicity rating SETVI” value ([15]; 250 g ai/ha) was 60. For the same compound, the “phytotoxicity rating IPOHE” value ([16]; 63 g ai/ha) was 100, the “phytotoxicity rating IPOHE” value ([16]; 250 g ai/ha) was 100 and the “phytotoxicity rating SORHA” value ([17]; 63 g ai/ha) was 0. The “phytotoxicity rating SORHA” value ([17]; 250 g ai/ha) was 60, the “phytotoxicity rating CHEAL” value ([18]; 63 g ai/ha) was 100 and the “phytotoxicity rating CHEAL” value ([18]; 250 g ai/ha) was 100. The “phytotoxicity rating DIGSA” value ([19]; 63 g ai/ha) was 0, the “phytotoxicity rating DIGSA” value ([19]; 250 g ai/ha) was 30 and the “phytotoxicity rating AMARE” value ([20]; 63 g ai/ha) was 100. The “phytotoxicity rating AMARE” value ([20]; 250 g ai/ha) was 100, the “phytotoxicity rating CASOB” value ([21]; 63 g ai/ha) was 100 and the “phytotoxicity rating CASOB” value ([21]; 250 g ai/ha) was 100. The “phytotoxicity rating ABUTH” value ([22]; 63 g ai/ha) was 100, the “phytotoxicity rating ABUTH” value ([22]; 250 g ai/ha) was 100 and the “phytotoxicity rating CORN” value ([23]; 63 g ai/ha) was 30. For the same compound, the “phytotoxicity rating CORN” value ([23]; 250 g ai/ha) was 80, the “phytotoxicity rating RICE” value ([24]; 63 g ai/ha) was 45 and the “phytotoxicity rating RICE” value ([24]; 250 g ai/ha) was 90.
